According to paper PMC3056882 (Steroids, 2011):
Read-outs that look alike come from different tables or passages of the source.

What was measured:
AKR1D1 [1] = target: T1, AKR1D1 (Homo sapiens, UniProt P51857); type: biochemical; conditions: for Km / kcat: fluorimetric, pH 6.0, 15 μM NADPH, 37 °C
T1 sequence (P51857 1-326): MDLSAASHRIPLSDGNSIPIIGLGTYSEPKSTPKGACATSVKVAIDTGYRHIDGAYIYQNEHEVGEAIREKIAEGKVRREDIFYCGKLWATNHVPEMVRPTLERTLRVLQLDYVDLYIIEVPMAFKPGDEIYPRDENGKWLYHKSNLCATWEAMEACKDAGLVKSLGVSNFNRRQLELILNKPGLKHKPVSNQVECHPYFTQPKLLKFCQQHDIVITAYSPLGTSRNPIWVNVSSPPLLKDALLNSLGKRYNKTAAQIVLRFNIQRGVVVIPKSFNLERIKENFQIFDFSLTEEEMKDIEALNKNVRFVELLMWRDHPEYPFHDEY

AKR1D1 [2] = target: T1, AKR1D1; assay: Inhibition of [4-14C]-testosterone reduction, radiometric assay; type: biochemical; conditions: for ability to inhibit the AKR1D1 dependent reduction of testosterone: result in words; for mode of inhibition of AKR1D1: C, competitive inhibition, NC, non-competitive inhibition
AKR1D1 [3] = target: T1, AKR1D1; conditions: cited from earlier work
AKR1D1 [4] = target: T1, AKR1D1; assay: Dissociation constant of AKR1D1-NADPH binary complex by fluorescence titration; type: binding
aldose reductase AKR1B1 = conditions: read-out: Kd of NADPH for aldose reductase AKR1B1; cited from earlier work
AKR1C3 = conditions: read-out: Ki AKR1C3; competitive (C); ref Bauman et al., 2005 [28]; cited from earlier work
AKR1C2 = conditions: read-out: Ki AKR1C2; competitive (C); ref Bauman et al., 2005 [28]; cited from earlier work
AKR1C1 = conditions: read-out: Ki AKR1C1; competitive (C); ref Bauman et al., 2005 [28]; cited from earlier work
[5] = substrate: C[C@]12CCC(=O)C=C1CC[C@@H]1[C@@H]2[C@@H](O)C[C@]2(C=O)[C@@H](C(=O)CO)CC[C@@H]12; type: biochemical, human; conditions: other: fluorimetric, pH 6.0, 15 μM NADPH, 37 °C
[6] = substrate: C[C@]12CC[C@H]3[C@@H](CCC4=CC(=O)CC[C@@]43C)[C@@H]1CC[C@H]2O; type: biochemical, human; conditions: other: fluorimetric, pH 6.0, 15 μM NADPH, 37 °C
[7] = substrate: C[C@]12CCC(=O)C=C1CC[C@@H]1[C@@H]2[C@@H](O)C[C@@]2(C)[C@H]1CC[C@]2(O)C(=O)CO; type: biochemical, human; conditions: other: fluorimetric, pH 6.0, 15 μM NADPH, 37 °C
[8] = dissociation constant for substrate from the E-NADP(H) complex, N.D. = not detected
[9] = ref Di Costanzo et al., 2008 [13]
[10] = read-out: Ki (substrate inhibition), dissociation constant for substrate from the E-NADP(H) complex, N.D. = not detected

In the case of `C[C@]12CCC(=O)C=C1CC[C@@H]1[C@@H]2[C@@H](O)C[C@@]2(C)[C@H]1CC[C@]2(O)C(=O)CO` [Cortisol], the “Ki (substrate inhibition)” value (AKR1D1 [1]; [8]) is reported as “do not exhibit substrate inhibition”.

In the case of `C[C@]12C[C@H](O)[C@H]3[C@@H](CCC4=CC(=O)CC[C@@]43C)[C@@H]1CC[C@@H]2C(=O)CO` [Corticosterone], the “Ki (substrate inhibition)” value (AKR1D1 [1]; [8]) is reported as “do not exhibit substrate inhibition”, the Km (AKR1D1 [1]) is reported as 2.2 ± 0.5 µM and the kcat (AKR1D1 [1]) is reported as 0.0317 ± 0.0017 s⁻¹.

For `COc1ccc2c(c1)c(CC(=O)O)c(C)n2C(=O)c1ccc(Cl)cc1` [Indomethacin], the Ki (AKR1D1 [2]) was > 100 µM and the “ability to inhibit the AKR1D1 dependent reduction of testosterone” value (AKR1D1 [2]) was “ineffective”.

For `C[C@]12CC[C@H]3[C@@H](CCC4=CC(=O)CC[C@@]43C)[C@@H]1CC[C@@H]2C(=O)CO` [11-deoxycorticosterone], the Ki (AKR1D1 [1]) was < 2 µM, the Km (AKR1D1 [1]) was < 0.2 µM and the kcat (AKR1D1 [1]) was > 0.067 s⁻¹.

`CC(C)CCC[C@@H](C)[C@H]1CC[C@H]2[C@@H]3CCC4=CC(=O)CC[C@]4(C)[C@H]3CC[C@]12C` [Cholestenone] gave a Km (AKR1D1 [1]) of 0.3 ± 0.1 µM and a kcat (AKR1D1 [1]) of 0.01 ± 0.00067 s⁻¹.

In the case of `C[C@]12CC[C@H]3[C@@H](CCC4=CC(=O)CC[C@@]43C)[C@@H]1CC[C@@H]2O` [Testosterone], the Ki (AKR1D1 [3]; read-out: Ki (substrate inhibition), ref Di Costanzo et al., 2008 [13]) is listed as 14.5 ± 5.8 µM, the Km (AKR1D1 [3]; [9]) is listed as 2.7 ± 1.2 µM and the kcat (AKR1D1 [3]; [9]) is listed as 0.14 ± 0.0333 s⁻¹.

For `C[C@]12CCC(=O)C=C1CC[C@@H]1[C@@H]2[C@@H](O)C[C@]2(C=O)[C@@H](C(=O)CO)CC[C@@H]12` [Aldosterone], the Ki (AKR1D1 [1]) was 66.5 ± 15.7 µM.

For `C[C@]12CC[C@H]3[C@@H](CCC4=CC(=O)C=C[C@@]43C)[C@@H]1CC[C@@H]2O` [1,4-Androstadien-17β-ol-3-one], the Km (AKR1D1 [3]; ref Drury et al., 2009 [14]) is listed as 3.2 ± 0.2 µM and the kcat (AKR1D1 [3]; ref Drury et al., 2009 [14]) is listed as 0.035 ± 0.0017 s⁻¹.

For `CC(=O)[C@H]1CC[C@H]2[C@@H]3CCC4=CC(=O)CC[C@]4(C)[C@H]3CC[C@]12C` [progesterone], the Ki (AKR1D1 [1]) was < 2 µM, the Km (AKR1D1 [1]) was < 0.2 µM and the kcat (AKR1D1 [1]) was > 0.067 s⁻¹.

In the case of NADPH, the “Kd fold higher than AKR1B1” value (AKR1D1 [4]; AKR1D1 vs AKR1B1 (human aldose reductase)) is given as 5 fold, the Kd (AKR1D1 [4]; read-out: dissociation constant (Kd) of NADPH for wild-type AKR1D1, fluorescence titration, 10 mM potassium phosphate pH 6.0, 37 °C) is given as 0.043 ± 0.016 µM and the Kd (aldose reductase AKR1B1) is given as 0.009 µM.

`C[C@]12CC[C@H]3[C@@H](CCC4=CC(=O)CC[C@@]43C)[C@@H]1CC[C@H]2O` [Epitestosterone] gave a Ki (AKR1D1 [1]) of 10 ± 2.2 µM.

For `C[C@H](CCC(=O)O)[C@H]1CC[C@H]2[C@@H]3[C@@H](O)C[C@@H]4C[C@H](O)CC[C@]4(C)[C@H]3CC[C@]12C` [Ursodeoxycholic acid], the Ki (AKR1C3) is given as 1.3 µM, the Ki (AKR1C2) is given as 0.011 µM and the Ki (AKR1D1 [2]) is given as 9.8 µM. For the same molecule, the “mode of inhibition of AKR1D1” value (AKR1D1 [2]) was “non-competitive” and the Ki (AKR1C1) was 4.9 µM.

Molecule `C[C@]12CCC(=O)C=C1CC[C@@H]1[C@@H]2C(=O)C[C@@]2(C)[C@H]1CC[C@]2(O)C(=O)CO` [Cortisone] has a Km (AKR1D1 [1]) of 15.1 ± 0.3 µM and a kcat (AKR1D1 [1]) of 0.195 ± 0.0017 s⁻¹.

For `C[C@]12CC[C@H]3[C@@H](CCC4=CC(=O)CC[C@@H]43)[C@@H]1CC[C@@H]2O` [4-Estren-17β-ol-3-one], the Km (AKR1D1 [1]) was 3 ± 0.5 µM, the kcat (AKR1D1 [1]) was 0.045 ± 0.0033 s⁻¹ and the Ki (AKR1D1 [1]; [10]) was 18.6 ± 3.4 µM.

In the case of `Cc1cccc(Nc2ccccc2C(=O)O)c1C` [Mefenamic acid], the Ki (AKR1D1 [2]) is listed as > 100 µM, the “ability to inhibit the AKR1D1 dependent reduction of testosterone” value (AKR1D1 [2]) is listed as “ineffective” and the Ki (AKR1C1) is listed as 0.8 µM.

In the case of `C[C@H](CCC(=O)O)[C@H]1CC[C@H]2[C@@H]3[C@H](O)C[C@@H]4C[C@H](O)CC[C@]4(C)[C@H]3CC[C@]12C` [Chenodeoxycholic acid], the Ki (AKR1C3) is listed as 10 µM, the Ki (AKR1C2) is listed as 0.017 µM and the Ki (AKR1D1 [2]) is listed as 3.2 µM. For the same molecule, the “mode of inhibition of AKR1D1” value (AKR1D1 [2]) was “non-competitive” and the Ki (AKR1C1) was 8.3 µM.

In the case of `O=C(O)c1ccc(C(=O)c2ccccc2)cc1` [4-Benzoylbenzoic acid], the Ki (AKR1C3) is given as 1.9 µM, the Ki (AKR1C2) is given as 13.3 µM and the Ki (AKR1D1 [2]) is given as > 100 µM. The “ability to inhibit the AKR1D1 dependent reduction of testosterone” value (AKR1D1 [2]) was “ineffective” and the Ki (AKR1C1) was 12.5 µM.

`C[C@]12CCC(=O)C=C1CC[C@@H]1[C@@H]2CC[C@]2(C)C(=O)CC[C@@H]12` [Δ^4-Androstene-3,17-dione] showed a Km (AKR1D1 [1]) of 0.9 ± 0.2 µM, a kcat (AKR1D1 [1]) of 0.1 ± 0.013 s⁻¹ and a Ki (AKR1D1 [1]; [10]) of 4.3 ± 1.3 µM.

For `CC(C)CCC[C@@H](C)[C@H]1CC[C@H]2[C@@H]3[C@H](O)CC4=CC(=O)CC[C@]4(C)[C@H]3CC[C@]12C` [4-Cholesten-7α-ol-3-one], the Km (AKR1D1 [1]) was 0.8 ± 0.2 µM and the kcat (AKR1D1 [1]) was 0.0333 ± 0.0017 s⁻¹.

B1: AKR1D1 (Homo sapiens) (protein)
chain: T1 sequence (P51857 1-326)
B1 showed a Km [5] of 2.5 ± 0.4 µM, a kcat [5] of 0.15 ± 0.01 s⁻¹ and a kcat/Km [5] of 61300 M⁻¹ s⁻¹. For the same molecule, the Km [6] was 2.9 ± 0.6 µM, the kcat [6] was 0.1 ± 0.0117 s⁻¹ and the kcat/Km [6] was 34800 M⁻¹ s⁻¹. The Km [7] was 13.1 ± 1.8 µM, the kcat [7] was 0.045 ± 0.00167 s⁻¹ and the kcat/Km [7] was 3500 M⁻¹ s⁻¹.
